Columns and labels:
Echinochloa crus-galli [1] = test: Herbicidal effect test in submerged condition by treatment before weed-generation (1); type: in vivo; conditions: 0.64 g/a, water surface treated on day of sowing, 3 weeks after treatment
Excerpt: (§1) Herbicidal Effect Test in Submerged Condition by Treatment Before Weed-Generation (1)
(§2) After alluvial soil was placed in a styrol cup of 1/30000 are, water was poured therein and mixed, and adjusted to a submerged condition of water depth 4 cm. After seeds of Echinochloa crus-galli, Scirpus juncoides and Monochoria vaginalis were sown in the cup, rice seedlings at 2.5th leaf stage were transplanted. On the day when the seeds were sown, the wettable powder of the present invention prepared according to Formulation Example 1 was diluted with water so as to give a predetermined formulation amount, and the surface of the water was treated with the diluted wettable powder. The plants were grown by putting the cup in a green house at 25 to 30° C., and investigated on herbicidal effect against each weed 3 weeks after treatment with the herbicide according to the following criteria.
(§3) 5 Herbicidal rate 90% or more (almost complete death)
(§4) 4 Herbicidal rate 70% or more and less than 90%
(§5) 3 Herbicidal rate 40% or more and less than 70%
(§6) 2 Herbicidal rate 20% or more and less than 40%
(§7) 1 Herbicidal rate 5% or more and less than 20%
(§8) 0 Herbicidal rate 5% or less (little effect)

Monochoria vaginalis [2] = test: as above; type: in vivo; conditions: 0.64 g/a, water surface treated on day of sowing, 3 weeks after treatment
Excerpt: as §1, §2, §3, §4, §5, §6, §7, §8

Scirpus juncoides [3] = test: as above; type: in vivo; conditions: 0.64 g/a, water surface treated on day of sowing, 3 weeks after treatment
Excerpt: as §1, §2, §3, §4, §5, §6, §7, §8

Echinochloa crus-galli [4] = test: Herbicidal effect test in submerged condition by treatment during weed-growth stage (1); type: in vivo; conditions: 0.64 g/a, treated at 1st to 2nd leaf stage, 3 weeks after treatment
Method: (§9) Herbicidal Effect Test in Submerged Condition by Treatment During Weed-Growth Stage (1) After alluvial soil was placed in a styrol cup of 1/30000 are, water was poured therein and mixed, and adjusted to a submerged condition of water depth 4 cm. After seeds of Echinochloa crus-galli, Scirpus juncoides and Monochoria vaginalis were sown in the cup, the plants were grown by putting the cup in a green house at 25 to 30° C. When Echinochloa crus-galli, Scirpus juncoides and Monochoria vaginalis reached 1st to 2nd leaf stage, the wettable powder of the present invention prepared according to Formulation Example 1 was diluted with water so as to give a predetermined formulation amount, and the surface of the water was treated with the diluted wettable powder. The herbicidal effect for each plant was investigated 3 weeks after treatment with the herbicide according to the criteria indicated in Test Example 1.

Monochoria vaginalis [5] = test: as above; type: in vivo; conditions: 0.64 g/a, treated at 1st to 2nd leaf stage, 3 weeks after treatment
Method: as §9

Scirpus juncoides [6] = test: as above; type: in vivo; conditions: 0.64 g/a, treated at 1st to 2nd leaf stage, 3 weeks after treatment
Method: as §9

Abutilon avicennae [7] = test: Herbicidal effect test by soil treatment; type: in vivo; conditions: 1.6 g/a, 3 weeks after treatment
Excerpt: (§10) Herbicidal Effect Test by Soil Treatment
(§11) Sterilized diluvial soil was placed in a plastic box having a size of length 21 cm, width 13 cm and depth 7 cm, seeds Echinochloa crus-galli, Digitaria adscendes, Setaria viridis, Avena fatua, Black-grass, Abutilon avicennae, Ambrosia elatior, Amaranthus retroflexus, Chenopodium album, Polygonum blumei, Stellaria media, Zea mays (corn), Glycine max (soybean), Oryza sativa (rice), Triticum aestivum (wheat) and Beta vulgaris (beat) were sown interspatially, covered with about 1.5 cm of soil, and then the wettable powder of the present invention prepared according to Formulation Example 1 was diluted with water so as to give a predetermined formulation amount, and the surface of the soil was uniformly treated with the diluted wettable powder by use of a small-sized spray. The herbicidal effect for each plant was investigated 3 weeks after treatment with the herbicide according to the criteria indicated in Test Example 1.

Amaranthus retroflexus [8] = test: Herbicidal effect test by soil treatment; type: in vivo; conditions: 1.6 g/a, 3 weeks after treatment
Excerpt: as §10, §11

Ambrosia elatior [9] = test: Herbicidal effect test by soil treatment; type: in vivo; conditions: 1.6 g/a, 3 weeks after treatment
Excerpt: as §10, §11

Beta vulgaris (beet) [10] = test: Herbicidal effect test by soil treatment; type: in vivo; conditions: 1.6 g/a, 3 weeks after treatment
Excerpt: as §10, §11

Chenopodium album [11] = test: Herbicidal effect test by soil treatment; type: in vivo; conditions: 1.6 g/a, 3 weeks after treatment
Excerpt: as §10, §11

Digitaria adscendes [12] = test: Herbicidal effect test by soil treatment; type: in vivo; conditions: 1.6 g/a, 3 weeks after treatment
Excerpt: as §10, §11

Echinochloa crus-galli [13] = test: Herbicidal effect test by soil treatment; type: in vivo; conditions: 1.6 g/a, 3 weeks after treatment
Excerpt: as §10, §11

Polygonum blumei [14] = test: Herbicidal effect test by soil treatment; type: in vivo; conditions: 1.6 g/a, 3 weeks after treatment
Excerpt: as §10, §11

Setaria viridis [15] = test: Herbicidal effect test by soil treatment; type: in vivo; conditions: 1.6 g/a, 3 weeks after treatment
Excerpt: as §10, §11

Stellaria media [16] = test: Herbicidal effect test by soil treatment; type: in vivo; conditions: 1.6 g/a, 3 weeks after treatment
Excerpt: as §10, §11

corn (Zea mays) [17] = test: Herbicidal effect test by soil treatment; type: in vivo; conditions: 1.6 g/a, 3 weeks after treatment
Excerpt: as §10, §11

soybean (Glycine max) [18] = test: Herbicidal effect test by soil treatment; type: in vivo; conditions: 1.6 g/a, 3 weeks after treatment
Excerpt: as §10, §11

direct sown rice [19] = test: Herbicidal effect test by soil treatment; type: in vivo, Oryza sativa; conditions: 1.6 g/a, 3 weeks after treatment
Excerpt: as §10, §11

Abutilon avicennae [20] = test: Herbicidal effect test by foliage treatment; type: in vivo; conditions: 1.6 g/a; foliage treatment after growth of 14 days; 3 weeks after treatment
Excerpt: (§12) Herbicidal Effect Test by Foliage Treatment
(§13) Sterilized diluvial soil was placed in a plastic box having a size of length 21 cm, width 13 cm and depth 7 cm, seeds of Echinochloa crus-galli, Digitaria adscendes, Setaria viridis, Avena fatua, Black-grass, Abutilon avicennae, Ambrosia elatior, Amaranthus retroflexus, Chenopodium album, Polygonum blumei, Stellaria media, Zea mays, Glycine max, Oryza sativa, Triticum aestivum and Beta vulgaris were sown interspatially, covered with about 1.5 cm of soil, and then the plants were grown by putting the box in a green house at 25 to 30° C. After growth of 14 days, the wettable powder of the present invention prepared according to Formulation Example 1 was diluted with water so as to give a predetermined formulation amount, and the foliage part was uniformly treated with the diluted wettable powder by use of a small-sized spray. The herbicidal effect for each plant was investigated 3 weeks after treatment with the herbicide according to the criteria indicated in Test Example 1.

Amaranthus retroflexus [21] = test: Herbicidal effect test by foliage treatment; type: in vivo; conditions: 1.6 g/a; foliage treatment after growth of 14 days; 3 weeks after treatment
Excerpt: as §12, §13

Ambrosia elatior [22] = test: Herbicidal effect test by foliage treatment; type: in vivo; conditions: 1.6 g/a; foliage treatment after growth of 14 days; 3 weeks after treatment
Excerpt: as §12, §13

Avena fatua = test: Herbicidal effect test by foliage treatment; type: in vivo; conditions: 1.6 g/a; foliage treatment after growth of 14 days; 3 weeks after treatment
Excerpt: as §12, §13

Beta vulgaris (beet) [23] = test: Herbicidal effect test by foliage treatment; type: in vivo; conditions: 1.6 g/a; foliage treatment after growth of 14 days; 3 weeks after treatment
Excerpt: as §12, §13

Black-grass = test: Herbicidal effect test by foliage treatment; type: in vivo; conditions: 1.6 g/a; foliage treatment after growth of 14 days; 3 weeks after treatment
Excerpt: as §12, §13

Chenopodium album [24] = test: Herbicidal effect test by foliage treatment; type: in vivo; conditions: 1.6 g/a; foliage treatment after growth of 14 days; 3 weeks after treatment
Excerpt: as §12, §13

Digitaria adscendes [25] = test: Herbicidal effect test by foliage treatment; type: in vivo; conditions: 1.6 g/a; foliage treatment after growth of 14 days; 3 weeks after treatment
Excerpt: as §12, §13

Echinochloa crus-galli [26] = test: Herbicidal effect test by foliage treatment; type: in vivo; conditions: 1.6 g/a; foliage treatment after growth of 14 days; 3 weeks after treatment
Excerpt: as §12, §13

Polygonum blumei [27] = test: Herbicidal effect test by foliage treatment; type: in vivo; conditions: 1.6 g/a; foliage treatment after growth of 14 days; 3 weeks after treatment
Excerpt: as §12, §13

Setaria viridis [28] = test: Herbicidal effect test by foliage treatment; type: in vivo; conditions: 1.6 g/a; foliage treatment after growth of 14 days; 3 weeks after treatment
Excerpt: as §12, §13

Stellaria media [29] = test: Herbicidal effect test by foliage treatment; type: in vivo; conditions: 1.6 g/a; foliage treatment after growth of 14 days; 3 weeks after treatment
Excerpt: as §12, §13

[30] = tested on: Triticum aestivum (wheat); test: Herbicidal effect test by foliage treatment; type: in vivo; conditions: 1.6 g/a; foliage treatment after growth of 14 days; 3 weeks after treatment
Excerpt: as §12, §13

corn (Zea mays) [31] = test: Herbicidal effect test by foliage treatment; type: in vivo; conditions: 1.6 g/a; foliage treatment after growth of 14 days; 3 weeks after treatment
Excerpt: as §12, §13

soybean (Glycine max) [32] = test: Herbicidal effect test by foliage treatment; type: in vivo; conditions: 1.6 g/a; foliage treatment after growth of 14 days; 3 weeks after treatment
Excerpt: as §12, §13

direct sown rice [33] = test: Herbicidal effect test by foliage treatment; type: in vivo, Oryza sativa; conditions: 1.6 g/a; foliage treatment after growth of 14 days; 3 weeks after treatment
Excerpt: as §12, §13

COc1cc(OC)nc(NC(=O)NS(=O)(=O)c2c(C3=NOCC(C)O3)c(C)nn2C)n1 (centres unmarked) [Compound 5, N-((4,6-dimethoxypyrimidin-2-yl)aminocarbonyl)-1,3-dimethyl-4-(5-methyl-5H,6H-1,4,2-dioxadin-3-yl)pyrazole-5-sulfonamide]
herbicidal effect, A: Echinochloa crus-galli (Echinochloa crus-galli [1]): 5 (Herbicidal rate 90% or more (almost complete death))
herbicidal effect, C: Monochoria vaginalis (Monochoria vaginalis [2]): 5 (Herbicidal rate 90% or more (almost complete death))
herbicidal effect, B: Scirpus juncoides (Scirpus juncoides [3]): 5 (Herbicidal rate 90% or more (almost complete death))
herbicidal effect, A: Echinochloa crus-galli (Echinochloa crus-galli [4]): 5 (Herbicidal rate 90% or more (almost complete death))
herbicidal effect, C: Monochoria vaginalis (Monochoria vaginalis [5]): 5 (Herbicidal rate 90% or more (almost complete death))
herbicidal effect, B: Scirpus juncoides (Scirpus juncoides [6]): 5 (Herbicidal rate 90% or more (almost complete death))
herbicidal effect, H: Abutilon avicennae (Abutilon avicennae [7]): 4 (Herbicidal rate 70% or more and less than 90%)
herbicidal effect, J: Amaranthus retroflexus (Amaranthus retroflexus [8]): 5 (Herbicidal rate 90% or more (almost complete death))
herbicidal effect, I: Ambrosia elatior (Ambrosia elatior [9]): 5 (Herbicidal rate 90% or more (almost complete death))
herbicidal effect, f: Beta vulgaris (beet) (Beta vulgaris (beet) [10]): 5 (Herbicidal rate 90% or more (almost complete death))
herbicidal effect, K: Chenopodium album (Chenopodium album [11]): 5 (Herbicidal rate 90% or more (almost complete death))
herbicidal effect, D: Digitaria adscendes (Digitaria adscendes [12]): 5 (Herbicidal rate 90% or more (almost complete death))
herbicidal effect, A: Echinochloa crus-galli (Echinochloa crus-galli [13]): 5 (Herbicidal rate 90% or more (almost complete death))
herbicidal effect, L: Polygonum blumei (Polygonum blumei [14]): 5 (Herbicidal rate 90% or more (almost complete death))
herbicidal effect, E: Setaria viridis (Setaria viridis [15]): 4 (Herbicidal rate 70% or more and less than 90%)
herbicidal effect, M: Stellaria media (Stellaria media [16]): 5 (Herbicidal rate 90% or more (almost complete death))
herbicidal effect, b: corn (Zea mays) (corn (Zea mays) [17]): 5 (Herbicidal rate 90% or more (almost complete death))
herbicidal effect, c: soybean (Glycine max) (soybean (Glycine max) [18]): 5 (Herbicidal rate 90% or more (almost complete death))
herbicidal effect, d: direct sown rice (direct sown rice [19]): 5 (Herbicidal rate 90% or more (almost complete death))
herbicidal effect, H: Abutilon avicennae (Abutilon avicennae [20]): 5 (Herbicidal rate 90% or more (almost complete death))
herbicidal effect, J: Amaranthus retroflexus (Amaranthus retroflexus [21]): 5 (Herbicidal rate 90% or more (almost complete death))
herbicidal effect, I: Ambrosia elatior (Ambrosia elatior [22]): 5 (Herbicidal rate 90% or more (almost complete death))
herbicidal effect, F: Avena fatua (Avena fatua): 5 (Herbicidal rate 90% or more (almost complete death))
herbicidal effect, f: Beta vulgaris (beet) (Beta vulgaris (beet) [23]): 5 (Herbicidal rate 90% or more (almost complete death))
herbicidal effect, G: Black-grass (Black-grass): 5 (Herbicidal rate 90% or more (almost complete death))
herbicidal effect, K: Chenopodium album (Chenopodium album [24]): 5 (Herbicidal rate 90% or more (almost complete death))
herbicidal effect, D: Digitaria adscendes (Digitaria adscendes [25]): 5 (Herbicidal rate 90% or more (almost complete death))
herbicidal effect, A: Echinochloa crus-galli (Echinochloa crus-galli [26]): 5 (Herbicidal rate 90% or more (almost complete death))
herbicidal effect, L: Polygonum blumei (Polygonum blumei [27]): 5 (Herbicidal rate 90% or more (almost complete death))
herbicidal effect, E: Setaria viridis (Setaria viridis [28]): 4 (Herbicidal rate 70% or more and less than 90%)
herbicidal effect, M: Stellaria media (Stellaria media [29]): 5 (Herbicidal rate 90% or more (almost complete death))
herbicidal effect, e: Triticum aestivum (wheat) [30]: 5 (Herbicidal rate 90% or more (almost complete death))
herbicidal effect, b: corn (Zea mays) (corn (Zea mays) [31]): 5 (Herbicidal rate 90% or more (almost complete death))
herbicidal effect, c: soybean (Glycine max) (soybean (Glycine max) [32]): 5 (Herbicidal rate 90% or more (almost complete death))
herbicidal effect, d: direct sown rice (direct sown rice [33]): 3 (Herbicidal rate 40% or more and less than 70%)
